Earlier results, collected in patent publication US20100273711A1, “INDIVIDUALIZED CANCER TREATMENTS” (priority 2007, published 2010).

How the values were obtained:
K-562 = settings: pemetrexed, cell line K-562; cited from earlier work
HCC-2998 = settings: pemetrexed, cell line HCC-2998; cited from earlier work
HCT-116 = settings: pemetrexed, cell line HCT-116; cited from earlier work
SNB-19 = settings: pemetrexed, cell line SNB-19; cited from earlier work
MDA-MB-435 = settings: pemetrexed, cell line MDA-MB-435; cited from earlier work
M14 = settings: pemetrexed, cell line M14; cited from earlier work
SK-MEL-2 = settings: pemetrexed, cell line SK-MEL-2; cited from earlier work
SK-MEL-28 = settings: pemetrexed, cell line SK-MEL-28; cited from earlier work
257p = settings: pemetrexed, cell line 257P; cited from earlier work
A375 = settings: pemetrexed, cell line A375; cited from earlier work
ES2 = settings: pemetrexed, cell line ES2; cited from earlier work
SKMel19 = settings: pemetrexed, cell line SKMel19; cited from earlier work
SNU182 = settings: pemetrexed, cell line SNU182; cited from earlier work
SW13 = settings: pemetrexed, cell line Sw13; cited from earlier work
DV90 = settings: pemetrexed, cell line DV90; cited from earlier work
OAW42 = settings: pemetrexed, cell line OAW42; cited from earlier work
OVKAR = settings: pemetrexed, cell line OVKAR; cited from earlier work
R103 = settings: pemetrexed, cell line R103; cited from earlier work

SMILES: Nc1nc2[nH]cc(CCc3ccc(C(=O)N[C@@H](CCC(=O)O)C(=O)O)cc3)c2c(=O)[nH]1 [Pemetrexed, pemetrexed]
- Resistant (Res) or Sensitive (Sen) (K-562): Res
- Resistant (Res) or Sensitive (Sen) (HCC-2998): Res
- Resistant (Res) or Sensitive (Sen) (HCT-116): Res
- Resistant (Res) or Sensitive (Sen) (SNB-19): Sen
- Resistant (Res) or Sensitive (Sen) (MDA-MB-435): Sen
- Resistant (Res) or Sensitive (Sen) (M14): Sen
- Resistant (Res) or Sensitive (Sen) (SK-MEL-2): Sen
- Resistant (Res) or Sensitive (Sen) (SK-MEL-28): Sen
- Resistant (Res) or Sensitive (Sen) (257p): Res
- Resistant (Res) or Sensitive (Sen) (A375): Res
- Resistant (Res) or Sensitive (Sen) (ES2): Res
- Resistant (Res) or Sensitive (Sen) (SKMel19): Res
- Resistant (Res) or Sensitive (Sen) (SNU182): Res
- Resistant (Res) or Sensitive (Sen) (SW13): Res
- Resistant (Res) or Sensitive (Sen) (DV90): Sen
- Resistant (Res) or Sensitive (Sen) (OAW42): Sen
- Resistant (Res) or Sensitive (Sen) (OVKAR): Sen
- Resistant (Res) or Sensitive (Sen) (R103): Sen
